This note sets out measurements from US20250161260A1, “USE OF DELTA-TOCOTRIENOL TO REDUCE THE PROGRESSION OF A NEOPLASM TO A CANCER” (H. LEE MOFFITT CANCER CENTER AND RESEARCH INSTITUTE, INC., priority 2022, published 2025).

Series [1] relates to β-catenin expression in PCSCs. Kind of series: β-catenin expression in human PC stem cells (PCSCs). Type of series: cell-based. To be noted: less inhibition with DT 3 without Wnt3a pretreatment.
Another series has as its system HPNE-Kras cells. Put plainly: Apoptosis (C-PARP) and signaling protein expression in HPNE-Kras cells. Type of series: cell-based.
The test system of series [2] is β-catenin expression in HPNE-Kras cells. Put plainly: β-catenin expression in HPNE-Kras cells. Type of series: cell-based.
For series [3], the system named is LGKC1 cells. Put plainly: Immunoblotting of downstream signaling, LGKC1. The settings on record: LGKC1, IC50 dose. Type of series: cell-based, murine. The procedure:
(§1) LGKC1 (9A, 9C, 9E) and LGKC2 (9B, 9D, 9E) cells were treated with IC50 dose of DT 3 for 48 h. Apoptosis was measured by flow cytometry following annexin V and propidium iodide staining (9A, 9B). For cell cycle analysis by flow cytometry (9C, 9D) cells were synchronized with double thymidine block prior to treatment with DT 3. Following the treatment, cell lysates were prepared and impact on downstream signaling was performed by immunoblotting using the indicated antibodies (9E) and subjected to RNA sequencing (9F).
(§2) To determine if the reduced cell proliferation of IPMN cells by DT3 were due to its impact on cell cycle or cell death, we assayed apoptosis and cell cycle analysis by flow cytometry. […] RNA seq analysis of the treated cells further indicated significant upregulation of biological processes associated with programmed cell death, cell proliferation, immune response, and collagen fibril organization (FIG. 9F).
A general note: A western blot detects proteins with antibodies after separation by electrophoresis.

For the next series, the system named is HPNE cells. Put plainly: Apoptosis (C-PARP) in HPNE cells. Type of series: cell-based.
Series [4] deals with LGKC1 cells. Put plainly: Apoptosis by flow cytometry (annexin V / propidium iodide), LGKC1. Type of series: cell-based, murine. To be noted: LGKC1, IC50 dose, 48 h. The procedure: as §1, §2
Background: In flow cytometry, cells or beads pass a laser one at a time.

Series [5] relates to LGKC2 cells. Put plainly: Cell proliferation by MTT assay, LGKC2. To be noted: LGKC2, 48 h. Type of series: cell-based, murine. The procedure:
(§3) LGKC1 (left) and LGKC2 cells were treated with varying doses of DT3 for 24, 48, and 72 h and cell proliferation were measured by MTT assay.
(§4) We further studied the effect of DT3 on the proliferation of recently described murine IPMN cell lines LGKC1 & LGKC2 derived from constitutively active Kras and Gnas murine model of pancreatic cystic lesions [p48-Cre; KrasG12D; Rosa26R-rtTA-TetO-GnasR201C]. […] These IC50 doses were used for downstream functional studies in LGKC1 and LGKC2 cell lines.
A general note: Tetrazolium dyes change colour on reduction, which living cells bring about.

Series [6] deals with β-catenin expression in 3T3 cells. Kind of series: β-catenin expression in 3T3 cells. Type of series: cell-based.
For another series, the system named is IPMN neoplastic cells. Kind of series: IHC of cleaved caspase-3 and BAX in tumor specimens of patients treated with DT3. Type of series: in vivo, human. The procedure: Lower panel is IHC stained for the pro-apoptotic protein Bax, illustrating the association of DT 3 induction of apoptosis with increased expression of Bax
(§5) DT3 has been widely used as a dietary supplement for its presumptive benefit in promoting health by decreasing serum cholesterol levels. […] In an NCI-sponsored phase 1 study (NCT00985777), we enrolled 9 out of 25 patients with IPMNs who were treated with DT3 for 2 weeks. […] In our IHC analyses of tumor specimens, we observed a significant induction of cleaved caspase-3 and BAX in the IPMN neoplastic cells of 7 of 9 patients (77%) treated at doses of 100 mg orally twice daily or higher (FIG. 1). We identified 400 mg BID as a Biological Effective Dose (BED) for DT3 in our phase I trial^33. Therefore, we propose to confirm DT3 activity on IPMNs at 400 mg twice daily in a phase II trial, since this was the most bioactive dose observed in our phase I trial.

Series [7] has as its system LGKC1 cells. Put plainly: Cell cycle analysis by flow cytometry, LGKC1. Type of series: cell-based, murine. The settings on record: LGKC-1, IC50 dose, 48 h, double thymidine block. On the procedure:
as §1, §2

Series [8] concerns LGKC2 cells. Kind of series: Immunoblotting of downstream signaling, LGKC2. Type of series: cell-based, murine. To be noted: LGKC2, IC50 dose. The procedure: as §1, §2
Series [9] relates to Wnt receptor activity in 3T3 cells. Put plainly: Wnt receptor activity (luciferase units) in 3T3 cells. The settings on record: after Wnt3a. Type of series: cell-based.
Series [10] has as its system LGKC2 cells. Put plainly: Cell cycle analysis by flow cytometry, LGKC2. Type of series: cell-based, murine. To be noted: LGKC-2, IC50 dose, 48 h, double thymidine block. On the procedure: as §1, §2
Series [11] concerns LGKC1 cells. Kind of series: Cell proliferation by MTT assay, LGKC1. To be noted: LGKC1, 48 h. Type of series: cell-based, murine. The procedure:
as §3, §4

For series [12] the following is noted: human, in vivo. The procedure: as §5
The test system of series [13] is LGKC2 cells. Kind of series: Apoptosis by flow cytometry (annexin V / propidium iodide), LGKC2. Type of series: cell-based, murine. The settings on record: LGKC2, IC50 dose, 48 h. The procedure:
as §1, §2

Where [14] appears, read: 100 mg orally twice daily or higher, 2 weeks.

Broadly, the IC50 is the concentration at which inhibition is half-maximal. In the case of `CC(C)=CCC/C(C)=C/CC/C(C)=C/CC[C@]1(C)CCc2cc(O)cc(C)c2O1` [DT3, δ-tocotrienol], the β-catenin expression entry in series [1] is on record as “abolished”. Also, in the series with HPNE-Kras cells, the “apoptosis (C-PARP)” value is given as “selectively induced apoptosis”; the “expression of MUC4, MUC16, β-catenin and downstream proteins (C-myc, cyclin D1, survivin)” value is “decreased the expression”; the “pAKT and pERK” value is “inhibited”. Also, the β-catenin expression result in series [2] is “abolished”. For the same molecule, in the series with LGKC1 cells [3], the expression of b-catenin result is “no effect”; the “p-AKT, p-ERK1/2, cyclin D1” value is “significant reduction”; the “pGSK3β and cleaved PARP” value is on record as “upregulation”. In addition, the “apoptosis (C-PARP)” value in the series with HPNE cells was “not in HPNE cells”. Besides, the apoptosis entry with LGKC1 cells [4] is “induced apoptosis”. In addition, the midpoint of inhibition in the series on LGKC2 cells [5], the IC50, lay at 29.4 µM. For the same molecule, the “Wnt agonist-induced β-catenin expression” value in series [6] is listed as “inhibited”. In the series with IPMN neoplastic cells (setting [14]), the “patients with significant induction of cleaved caspase-3 and BAX in IPMN neoplastic cells” value is 7 of 9; the “percent of patients with significant induction of cleaved caspase-3 and BAX in IPMN neoplastic cells” value is 77%. The “apoptosis as measured by cleaved caspase-3 expression (IHC)” value in the series with IPMN neoplastic cells (patients with IPMN) is on record as “significantly induced apoptosis”. Moreover, the cell cycle progression result with LGKC1 cells [7] is “G2/M arrest and accumulation of cells in S-phase”. Moreover, in the series on LGKC2 cells [8], the expression of b-catenin result is “no effect”; the “p-AKT, p-ERK1/2, cyclin D1” value is reported as “significant reduction”; the “pGSK3β and cleaved PARP” value is listed as “upregulation”. In series [9], the “agonist (Wnt3a)-induced Wnt receptor activity (luciferase units)” value is listed as “significantly inhibited”. In addition, the cell cycle progression result in the series on LGKC2 cells [10] was “no effect on cell cycle progression”. The same molecule came in with an IC50 with LGKC1 cells [11] of 25.3 µM. In addition, in series [12], the half-life result is given as “approximately 4 hours” and the “toxicity (dose-limiting toxicities, drug-related adverse events, postoperative complications)” value is on record as “no evidence of toxicity”. Besides, the apoptosis result with LGKC2 cells [13] is reported as “induced apoptosis”.

B1: DKK1: Wnt antagonist (protein, UniProt O94907 32-266, looked up)
Dickkopf-related protein 1: TLNSVLNSNAIKNLPPPLGGAAGHPGSAVSAAPGILYPGGNKYQTIDNYQPYPCAEDEECGTDEYCASPTRGGDAGVQICLACRKRRKRCMRHAMCCPGNYCKNGICVSSDQNHFRGEIEETITESFGNDHSTLDGYSRRTTLSSKMYHTKGQEGSVCLRSSDCASGLCCARHFWSKICKPVLKEGQVCTKHRRKGSHGLEIFQRCYCGEGLSCRIQKDHHQASNSSRLHTCQRH
With B1, the β-catenin expression result in series [1] and in series [2] was “abolished” throughout. For the same molecule, the “Wnt agonist-induced β-catenin expression” value in series [6] was “inhibited”. Besides, the “agonist (Wnt3a)-induced Wnt receptor activity (luciferase units)” value in series [9] is on record as “inhibited”.
